Laboratory results as given in US20240139220A1, “TREATMENT OF HPV INFECTION” (priority 2022, published 2024).
≈ marks a conversion by molar mass, not a printed value. Read-outs that look alike come from different tables or passages of the source.

Experiments:
Assay type in all cases: physicochemical
[1] = Bulk stability, accelerated storage for one week (HPLC, XRPD)
Experimental: Bulk stability: Accelerated stability experiments were conducted at 25° C./92% RH and 40° C./75% RH in an open container, 60° C. in a tight container for one week.
Samples were characterized by XRPD and HPLC and inspected for color change.
Accelerated stability experiments were conducted at 25° C./92% RH in an open container, at 40° C./75% RH in an open container, and at 60° C. in a tight container for one week.

[2] = Hygroscicity by Dynamic Vapor Sorption (DVS) at 25° C.; conditions: for D. (%) Cycle 1 (Desorption) / D. (%) Cycle 2 (Desorption) / S. (%) Cycle 1 (Sorption) / S. (%) Cycle 2 (Sorption) / XRPD after DVS test: 25° C.; for XRPD after DVS test: cycle 40-0-95-0-40% RH; for Water uptake: DVS 25° C.
Experimental: Hygroscopicity was investigated by DVS at 25° C., using the following method: […]

[3] = Solubility in buffers, water and simulated vaginal fluid at 37° C.
Experimental: About 4 mg of Compound I Pattern 1 was added into 2 mL of buffer solution.
(§1) Solubility was tested in five media, pH 3.0 citrate buffer, pH 4.5 acetate buffer, pH 6.8 phosphate buffer, water, simulated vaginal fluid (pH 4.2) at 37° C. for 0.5 h and 2 h.
The salt amount used is equivalent to 10 mg anhydrous free base. […] The obtained clear solutions were analyzed by pH meter for pH, and solubility was determined by observation.
as §1

[4] = Approximate solubility in solvents at 25° C. and 50° C. by visual observation; conditions: thermodynamic from solid, read-out: Solubility
Experimental: The maximum volume of each solvent added was 1 mL. Approximate solubility was determined by visual observation.
Maximum volume of each solvent added was 1 mL. Approximate solubility was determined by visual observation.

[5] = 25° C., 84% RH, open container, 2 days
[6] = 25° C., 92% RH, open container, one week
[7] = 40° C., 75% RH, open container, one week
[8] = 60° C., tight container, one week
[9] = Simulated vaginal fluid (pH adjusted with 0.2N NaOH)
[10] = cycle of 40-0-95-0-45% relative humidity

CCOC(=O)C(C)NP(=O)(COCCn1cnc2c(OC)nc(N)nc21)OCc1ccccc1.CCOC(=O)C(C)NP(=O)(COCCn1cnc2c(OC)nc(N)nc21)OCc1ccccc1.O=C(O)C=CC(=O)O (mixture of isomers) [Compound I Hemifumarate Pattern 1]
XRPD [1, 5]: No change | HPLC (chemical purity) [1, 6]: 97.0% | XRPD [1, 6]: No change | HPLC (chemical purity) [1, 7]: 90.9% | XRPD [1, 7]: No change | Degradation compared ([1]; 40° C./75% RH and 60° C. for one week): tends to degrade more than Compound I monofumarate Pattern 1 | HPLC (chemical purity) [1, 8]: 82.3% | XRPD [1, 8]: No change | HPLC (chemical purity) ([1]; Initial): 97.8% | D. (%) Cycle 1 (Desorption) ([2]; 0% RH): 0.13% | D. (%) Cycle 2 (Desorption) ([2]; 0% RH): 0.00% | S. (%) Cycle 1 (Sorption) ([2]; 0% RH): 0.13% | S. (%) Cycle 2 (Sorption) ([2]; 0% RH): 0.00% | D. (%) Cycle 1 (Desorption) ([2]; 10% RH): 0.36% | D. (%) Cycle 2 (Desorption) ([2]; 10% RH): 0.23% | S. (%) Cycle 1 (Sorption) ([2]; 10% RH): 0.34% | S. (%) Cycle 2 (Sorption) ([2]; 10% RH): 0.20% | D. (%) Cycle 1 (Desorption) ([2]; 20% RH): 0.56% | D. (%) Cycle 2 (Desorption) ([2]; 20% RH): 0.44% | S. (%) Cycle 1 (Sorption) ([2]; 20% RH): 0.53% | S. (%) Cycle 2 (Sorption) ([2]; 20% RH): 0.40% | D. (%) Cycle 1 (Desorption) ([2]; 30% RH): 0.79% | D. (%) Cycle 2 (Desorption) ([2]; 30% RH): 0.68% | S. (%) Cycle 1 (Sorption) ([2]; 30% RH): 0.73% | S. (%) Cycle 2 (Sorption) ([2]; 30% RH): 0.61% | D. (%) Cycle 1 (Desorption) ([2]; 40% RH): 1.04% | D. (%) Cycle 2 (Desorption) ([2]; 40% RH): 0.94% | S. (%) Cycle 1 (Sorption) ([2]; 40% RH): 0.96% | S. (%) Cycle 2 (Sorption) ([2]; 40% RH): 0.87% | D. (%) Cycle 2 (Desorption) ([2]; 50% RH): 1.26% | S. (%) Cycle 1 (Sorption) ([2]; 50% RH): 1.22% | D. (%) Cycle 2 (Desorption) ([2]; 60% RH): 1.68% | S. (%) Cycle 1 (Sorption) ([2]; 60% RH): 1.57% | D. (%) Cycle 2 (Desorption) ([2]; 70% RH): 2.25% | S. (%) Cycle 1 (Sorption) ([2]; 70% RH): 2.04% | D. (%) Cycle 2 (Desorption) ([2]; 80% RH): 3.14% | S. (%) Cycle 1 (Sorption) ([2]; 80% RH): 2.80% | D. (%) Cycle 2 (Desorption) ([2]; 90% RH): 4.84% | S. (%) Cycle 1 (Sorption) ([2]; 90% RH): 4.54% | D. (%) Cycle 2 (Desorption) ([2]; 95% RH): 6.87% | S. (%) Cycle 1 (Sorption) ([2]; 95% RH): 6.87% | XRPD after DVS test [2]: No form change, | Water uptake ([2]; up to 95% RH): ~6.9% | Solubility 0.5 hrs [3, 9]: >2 mg/mL | Solubility 2 hrs [3, 9]: >2 mg/mL | pH at 2 hrs [3, 9]: (5.30) | Solubility 0.5 hrs ([3]; Water): >2 mg/mL | Solubility 2 hrs ([3]; Water): >2 mg/mL | pH at 2 hrs ([3]; Water): (3.38) | Solubility 0.5 hrs ([3]; pH 3.0 100 mM citrate buffer): >2 mg/mL | Solubility 2 hrs ([3]; pH 3.0 100 mM citrate buffer): >2 mg/mL | pH at 2 hrs ([3]; pH 3.0 100 mM citrate buffer): (3.07) | Solubility 0.5 hrs ([3]; pH 4.5 50 mM acetate buffer): >2 mg/mL | Solubility 2 hrs ([3]; pH 4.5 50 mM acetate buffer): >2 mg/mL | pH at 2 hrs ([3]; pH 4.5 50 mM acetate buffer): (4.45) | Solubility 0.5 hrs ([3]; pH 6.8 50 mM phosphate buffer): >2 mg/mL | Solubility 2 hrs ([3]; pH 6.8 50 mM phosphate buffer): >2 mg/mL | pH at 2 hrs ([3]; pH 6.8 50 mM phosphate buffer): (6.68)

CCOC(=O)[C@H](C)NP(=O)(COCCn1cnc2c(OC)nc(N)nc21)OCc1ccccc1 (stereo partly drawn) [Compound I, ethyl(((2-(2-amino-6-methoxy-9H-purin-9-yl)ethoxy)methylxbenzyloxy)-phosphoryl)-L-alaninate]
Solubility ([4]; organic solvent or mixture, Acetone, 25° C.): > 100 mg/mL | Solubility ([4]; organic solvent or mixture, Acetone, 50° C.): > 500 mg/mL | Solubility ([4]; organic solvent or mixture, Acetonitrile (ACN), 25° C.): > 100 mg/mL | Solubility ([4]; organic solvent or mixture, Acetonitrile (ACN), 50° C.): > 500 mg/mL | Solubility ([4]; organic solvent or mixture, Dichloromethane (DCM), 25° C.): > 100 mg/mL | Solubility ([4]; organic solvent or mixture, Dichloromethane (DCM), 50° C.): > 500 mg/mL | Solubility ([4]; organic solvent or mixture, Ethanol (EtOH), 25° C.): > 100 mg/mL | Solubility ([4]; organic solvent or mixture, Ethanol (EtOH), 50° C.): > 500 mg/mL | Solubility ([4]; organic solvent or mixture, Ethyl acetate (EA), 25° C.): > 100 mg/mL | Solubility ([4]; organic solvent or mixture, Ethyl acetate (EA), 50° C.): > 500 mg/mL | Solubility ([4]; organic solvent or mixture, Heptanes, 25° C.): < 2 mg/mL | Solubility ([4]; organic solvent or mixture, Heptanes, 50° C.): < 10 mg/mL | Solubility ([4]; organic solvent or mixture, Isopropanol (IPA), 25° C.): > 100 mg/mL | Solubility ([4]; organic solvent or mixture, Isopropanol (IPA), 50° C.): > 500 mg/mL | Solubility ([4]; organic solvent or mixture, Isopropyl acetate (IPAc), 25° C.): > 100 mg/mL | Solubility ([4]; organic solvent or mixture, Isopropyl acetate (IPAc), 50° C.): > 500 mg/mL | Solubility ([4]; organic solvent or mixture, Methanol (MeOH), 25° C.): > 100 mg/mL | Solubility ([4]; organic solvent or mixture, Methanol (MeOH), 50° C.): > 500 mg/mL | Solubility ([4]; organic solvent or mixture, Methyl ethyl ketone (MEK), 25° C.): > 100 mg/mL | Solubility ([4]; organic solvent or mixture, Methyl ethyl ketone (MEK), 50° C.): > 500 mg/mL | Solubility ([4]; organic solvent or mixture, Methyl t-butyl ether (MTBE), 25° C.): < 2 mg/mL | Solubility ([4]; organic solvent or mixture, Methyl t-butyl ether (MTBE), 50° C.): < 10 mg/mL | Solubility ([4]; organic solvent or mixture, Tetrahydrofuran (THF), 25° C.): > 100 mg/mL | Solubility ([4]; organic solvent or mixture, Tetrahydrofuran (THF), 50° C.): 167 to 250 mg/mL (≈ 339 to 508 mM) | Solubility ([4]; Water, 25° C.): 20 to 25 mg/mL (≈ 40.6 to 50.8 mM) | Solubility ([4]; Water, 50° C.): 25 to 27 mg/mL (≈ 50.8 to 54.8 mM)

CCOC(=O)C(C)NP(=O)(COCCn1cnc2c(OC)nc(N)nc21)OCc1ccccc1 (mixture of isomers) [Compound I free base Pattern 1]
XRPD [1, 5]: No change | HPLC (chemical purity) [1, 6]: 98.5% | XRPD [1, 6]: No change | HPLC (chemical purity) [1, 7]: 95.2% | XRPD [1, 7]: No change | HPLC (chemical purity) [1, 8]: 98.5% | XRPD [1, 8]: No change | HPLC (chemical purity) ([1]; Initial): 98.7% | D. (%) Cycle 1 (Desorption) ([2]; 0% RH): 0.00% | D. (%) Cycle 2 (Desorption) ([2]; 0% RH): 0.19% | S. (%) Cycle 1 (Sorption) ([2]; 0% RH): 0.00% | S. (%) Cycle 2 (Sorption) ([2]; 0% RH): 0.19% | D. (%) Cycle 1 (Desorption) ([2]; 10% RH): 0.11% | D. (%) Cycle 2 (Desorption) ([2]; 10% RH): 0.37% | S. (%) Cycle 1 (Sorption) ([2]; 10% RH): 0.08% | S. (%) Cycle 2 (Sorption) ([2]; 10% RH): 0.22% | D. (%) Cycle 1 (Desorption) ([2]; 20% RH): 0.23% | D. (%) Cycle 2 (Desorption) ([2]; 20% RH): 0.57% | S. (%) Cycle 1 (Sorption) ([2]; 20% RH): 0.17% | S. (%) Cycle 2 (Sorption) ([2]; 20% RH): 0.30% | D. (%) Cycle 1 (Desorption) ([2]; 30% RH): 0.47% | D. (%) Cycle 2 (Desorption) ([2]; 30% RH): 0.83% | S. (%) Cycle 1 (Sorption) ([2]; 30% RH): 0.28% | S. (%) Cycle 2 (Sorption) ([2]; 30% RH): 0.44% | D. (%) Cycle 1 (Desorption) ([2]; 40% RH): 0.60% | D. (%) Cycle 2 (Desorption) ([2]; 40% RH): 1.09% | S. (%) Cycle 1 (Sorption) ([2]; 40% RH): 0.41% | S. (%) Cycle 2 (Sorption) ([2]; 40% RH): 0.62% | D. (%) Cycle 2 (Desorption) ([2]; 50% RH): 1.48% | S. (%) Cycle 1 (Sorption) ([2]; 50% RH): 0.61% | D. (%) Cycle 2 (Desorption) ([2]; 60% RH): 1.96% | S. (%) Cycle 1 (Sorption) ([2]; 60% RH): 0.85% | D. (%) Cycle 2 (Desorption) ([2]; 70% RH): 2.78% | S. (%) Cycle 1 (Sorption) ([2]; 70% RH): 1.14% | D. (%) Cycle 2 (Desorption) ([2]; 80% RH): 4.33% | S. (%) Cycle 1 (Sorption) ([2]; 80% RH): 1.64% | D. (%) Cycle 2 (Desorption) ([2]; 90% RH): 9.10% | S. (%) Cycle 1 (Sorption) ([2]; 90% RH): 4.27% | D. (%) Cycle 2 (Desorption) ([2]; 95% RH): 14.32% | S. (%) Cycle 1 (Sorption) ([2]; 95% RH): 14.32% | XRPD after DVS test [2]: No form change, | Water uptake ([2]; up to 90% RH): about 4.3% | Water uptake ([2]; up to 95% RH): about 14.3% | Solubility 0.5 hrs [3, 9]: >2 mg/mL | Solubility 2 hrs [3, 9]: >2 mg/mL | pH at 2 hrs [3, 9]: (5.53) | Solubility 0.5 hrs ([3]; Water): >2 mg/mL | Solubility 2 hrs ([3]; Water): >2 mg/mL | pH at 2 hrs ([3]; Water): (7.55) | Solubility 0.5 hrs ([3]; pH 3.0 100 mM citrate buffer): >2 mg/mL | Solubility 2 hrs ([3]; pH 3.0 100 mM citrate buffer): >2 mg/mL | pH at 2 hrs ([3]; pH 3.0 100 mM citrate buffer): (2.98) | Solubility 0.5 hrs ([3]; pH 4.5 50 mM acetate buffer): >2 mg/mL | Solubility 2 hrs ([3]; pH 4.5 50 mM acetate buffer): >2 mg/mL | pH at 2 hrs ([3]; pH 4.5 50 mM acetate buffer): (4.50) | Solubility 0.5 hrs ([3]; pH 6.8 50 mM phosphate buffer): >2 mg/mL | Solubility 2 hrs ([3]; pH 6.8 50 mM phosphate buffer): >2 mg/mL | pH at 2 hrs ([3]; pH 6.8 50 mM phosphate buffer): (6.81)

CCOC(=O)[C@H](C)N[P@](=O)(COCCn1cnc2c(OC)nc(N)nc21)OCc1ccccc1 (single isomer, unassigned) [Compound III, monofumarate]
Fold increase of retained water content versus Compound II [2, 10]: 40 fold | XRPD pattern after humidity cycle [2, 10]: lose one of the peaks | Water content retained ([2]; exposed to a cycle of 40-0-95-0-45% relative humidity): about 10%
